Experimental data from patent US8329755B2, “Methods for treating retroviral infections” (Roche Palo Alto LLC, priority 2004, dated 2012).

| SMILES | melting point [°C] |
| --- | --- |
| Cc1cc(S(=O)(=O)CCC#N)ccc1NC(=O)Cc1ccc(C)c(Oc2cc(Cl)cc(C#N)c2)c1 [Compound I-137, 2-[3-(3-Chloro-5-cyano-phenoxy)-4-methyl-phenyl]-N-[4-(2-cyano-ethanesulfonyl)-2-methyl-phenyl]-acetamide] | 186.1 to 188 |
| Cc1cc(C#N)cc(C)c1Oc1cc(CC(=O)Nc2ccc(S(N)(=O)=O)cc2)ccc1Cl [Compound I-55, 2-[4-Chloro-3-(4-cyano-2,6-dimethyl-phenoxy)-phenyl]-N-(4-sulfamoyl-phenyl)-acetamide] | 227.3 to 231.4 |
| COc1ccc(CC(=O)Nc2ccc(S(N)(=O)=O)cc2Cl)c(F)c1Oc1cc(Cl)cc(C#N)c1 [Compound I-190, 2-[3-(3-Chloro-5-cyano-phenoxy)-2-fluoro-4-methoxy-phenyl]-N-(2-chloro-4-sulfamoyl-phenyl)-acetamide] | 212 to 212.8 |
| Cc1ccc(CC(=O)Nc2ccccc2Cl)cc1Oc1cc(F)cc(C#N)c1 [Compound I-12, N-(2-Chloro-phenyl)-2-[3-(3-cyano-5-fluoro-phenoxy)-4-methyl-phenyl]-acetamide] | 131.1 to 132.2 |
| Cc1cc(N2CCCS2(=O)=O)ccc1NC(=O)Cc1ccc(C)c(Oc2cc(Cl)cc(C#N)c2)c1 [Compound I-170, 2-[3-(3-Chloro-5-cyano-phenoxy)-4-methyl-phenyl]-N-[4-(1,1-dioxo-1λ^6-isothiazolidin-2-yl)-2-methyl-phenyl]-acetamide] | 182.5 to 184.6 |
| Cc1cc(S(N)(=O)=O)ccc1NC(=O)Cc1ccc(C)c(Oc2cc(C#N)cc(C#N)c2)c1 [Compound I-43, 2-[3-(3,5-Dicyano-phenoxy)-4-methyl-phenyl]-N-(2-methyl-4-sulfamoyl-phenyl)-acetamide] | 228.6 to 230.9 |
| CCc1ccc(CC(=O)Nc2ccc(S(N)(=O)=O)cc2)cc1Oc1cc(Cl)cc(Br)c1 [Compound I-22, 2-[3-(3-Bromo-5-chloro-phenoxy)-4-ethyl-phenyl]-N-(4-sulfamoyl-phenyl)-acetamide] | 216.1 to 221.3 |
| CCc1ccc(CC(=O)Nc2ccccc2Cl)cc1Oc1cc(Cl)ccc1C#N [Compound I-18, 2-[3-(5-Chloro-2-cyano-phenoxy)-4-ethyl-phenyl]-N-(2-chloro-phenyl)-acetamide] | 168 to 169.9 |
| COc1ccc(CC(=O)Nc2ccc(S(N)(=O)=O)cc2C)cc1Oc1cc(Cl)cc(C#N)c1 [Compound I-73, 2-[3-(3-Chloro-5-cyano-phenoxy)-4-methoxy-phenyl]-N-(2-methyl-4-sulfamoyl-phenyl)-acetamide] | 222.3 to 224.3 |
| CCc1ccc(CC(=O)Nc2ccccc2)cc1Oc1cc(C#N)cc(C#N)c1Cl [Compound I-208, 2-[3-(2-Chloro-3,5-dicyano-phenoxy)-4-ethyl-phenyl]-N-phenyl-acetamide] | 189.3 to 192.3 |
| CCc1ccc(CC(=O)Nc2ccc(S(N)(=O)=O)cc2C)cc1Oc1cc(Br)cc(F)c1Cl [Compound I-40, 2-[3-(5-Bromo-2-chloro-3-fluoro-phenoxy)-4-ethyl-phenyl]-N-(2-methyl-4-sulfamoyl-phenyl)-acetamide] | 207 to 209.9 |
| COc1ccc(CC(=O)Nc2ccc(S(N)(=O)=O)cc2)cc1Oc1cc(C#N)ccc1Cl [Compound I-65, 2-[3-(2-Chloro-5-cyano-phenoxy)-4-methoxy-phenyl]-N-(4-sulfamoyl-phenyl)-acetamide] | 252.3 to 254.3 |
| Cc1cc(CC(=O)Nc2ccc(S(N)(=O)=O)cc2)cc(Oc2cc(Cl)cc(C#N)c2)c1C [Compound I-182, 2-[3-(3-Chloro-5-cyano-phenoxy)-4,5-dimethyl-phenyl]-N-(4-sulfamoyl-phenyl)-acetamide] | 229.7 to 231.3 |
| CSCCCNS(=O)(=O)c1ccc(NC(=O)Cc2ccc(C)c(Oc3cc(Cl)cc(C#N)c3)c2)c(C)c1 [Compound I-131, 2-[3-(3-Chloro-5-cyano-phenoxy)-4-methyl-phenyl]-N-[2-methyl-4-(3-methylsulfanyl-propylsulfamoyl)-phenyl]-acetamide] | 159.9 to 162.8 |
| Cc1cc(S(=O)(=O)NC(=O)c2cccnc2)ccc1NC(=O)Cc1ccc(Cl)c(Oc2cc(Cl)cc(C#N)c2)c1F.Cl | 261.8 to 263.6 |
| N#Cc1cc(Oc2c(Cl)ccc(CC(=O)Nc3ccccc3Cl)c2F)cc(C(F)F)c1 [Compound I-14, 2-[4-Chloro-3-(3-cyano-5-difluoromethyl-phenoxy)-2-fluoro-phenyl]-N-(2-chloro-phenyl)-acetamide] | 169.5 to 171 |
| NS(=O)(=O)c1ccc(NC(=O)Cc2cc3c(c(C(=O)c4ccc(Cl)cc4)c2)OCC3)cc1 [Compound I-241, 2-[7-(4-Chloro-benzoyl)-2,3-dihydro-benzofuran-5-yl]-N-(4-sulfamoyl-phenyl)-acetamide] | 259 to 261 |
| CC(F)(F)c1cc(C#N)cc(Oc2c(Cl)ccc(CC(=O)Nc3ccc(S(N)(=O)=O)cc3)c2F)c1 [Compound I-95, 2-{4-Chloro-3-[3-cyano-5-(1,1-difluoro-ethyl)-phenoxy]-2-fluoro-phenyl}-N-(4-sulfamoyl-phenyl)-acetamide] | 207 to 209.8 |
| CCC(=O)N(C)S(=O)(=O)c1ccc(NC(=O)Cc2ccc(Cl)c(Oc3cc(Cl)cc(C#N)c3)c2F)c(C)c1 [Compound I-99, 2-[4-Chloro-3-(3-chloro-5-cyano-phenoxy)-2-fluoro-phenyl]-N-[2-methyl-4-(methyl-propionyl-sulfamoyl)-phenyl]-acetamide] | 212 to 216.9 |
| CCC(=O)NS(=O)(=O)c1ccc(NC(=O)Cc2ccc(C)c(Oc3cc(Cl)cc(C#N)c3)c2F)c(Cl)c1.[Na] | 158.8 to 162 |
| Cc1cc(S(N)(=O)=O)ccc1NC(=O)Cc1ccc(Cl)c(Oc2c(C)cc(C#N)cc2C)c1 [Compound I-56, 2-[4-Chloro-3-(4-cyano-2,6-dimethyl-phenoxy)-phenyl]-N-(2-methyl-4-sulfamoyl-phenyl)-acetamide] | 232.1 to 234.6 |
